Test results from patent US6635621B1, “Cysteine protease inhibitors” (Naeja Pharmaceutical Inc., priority 1999, dated 2003).

Key:
[1] = target: rat cathepsin L (Rattus norvegicus, UniProt P07154); assay: In vitro assay for inhibition of cathepsin L; type: biochemical; details: r rat cathepsin L, substrate N-CBZ-Phe-Arg-AMC, pH 5.0, 10 min incubation at room temperature
Method: In Vitro Assay Procedure for Cathepsin L
To a 170 μl of enzyme-buffer mixture (enzyme: r rat cathepsin L, diluted to give approximate 15 F units/min, buffer: 58.8 mM sodium citrate, 1.18 mM EDTA, 235 mM sodium chloride, 5 mM […], pH 5.0) a 10 μL of inhibitor (dissolved in DMSO) was added. After 10 min of incubation at room temperature, a 20 μl of 1 mM substrate (N-CBZ-Phe-Arg-AMC, dissolved in DMSO) was added to initiate reaction. Reading is followed up for 10 min at the fluoroscan reader (excitation at 380 nm emission at 460 nm).
(§1) A plot of percentage of inhibition vs inhibitor concentration is obtained, and IC50 is determined using a linear regression calculations (concentration of inhibitor which will give 50% inhibition).

[2] = target: cathepsin S (Homo sapiens, UniProt P25774); assay: In vitro assay for inhibition of cathepsin S; type: biochemical; details: r cathepsin S, substrate N-CBZ-Val-Val-Arg-AMC, pH 6.5, 10 min incubation at room temperature
Sequence of cathepsin S (P25774 115-331, species assumed): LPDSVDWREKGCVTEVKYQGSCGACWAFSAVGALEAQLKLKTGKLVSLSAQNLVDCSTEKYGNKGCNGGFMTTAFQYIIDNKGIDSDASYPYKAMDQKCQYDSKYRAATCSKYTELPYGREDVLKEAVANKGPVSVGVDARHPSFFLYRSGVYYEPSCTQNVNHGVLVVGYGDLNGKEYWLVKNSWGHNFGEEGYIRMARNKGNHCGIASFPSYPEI
Method: In Vitro Assay Procedure for Cathepsin S
To a 170 μl of enzyme-buffer mixture (enzyme: r cathepsin S, diluted to give approximate 30 F units/min, buffer: 100 mM sodium phosphate, 1 mM EDTA, 5 mM DTT, 0.01% Brij, pH 6.5) a 10 μL of inhibitor (dissolved in DMSO) was added. After 10 min of incubation at room temperature, a 20 μl of 1.2 mM substrate (N-CBZ-Val-Val-Arg-AMC, dissolved in DMSO) was added to initiate reaction. Reading is followed up for 10 min at the fluoroscan II plate reader (excitation at 380 nm emission at 460 nm).
as §1

[3] = target: T1, cathepsin K (Homo sapiens, UniProt P43235); assay: In vitro assay for inhibition of cathepsin K; type: biochemical; details: r cathepsin K, substrate N-CBZ-Phe-Arg-AMC, pH 5.5, 10 min incubation at room temperature
T1 sequence (P43235 115-329): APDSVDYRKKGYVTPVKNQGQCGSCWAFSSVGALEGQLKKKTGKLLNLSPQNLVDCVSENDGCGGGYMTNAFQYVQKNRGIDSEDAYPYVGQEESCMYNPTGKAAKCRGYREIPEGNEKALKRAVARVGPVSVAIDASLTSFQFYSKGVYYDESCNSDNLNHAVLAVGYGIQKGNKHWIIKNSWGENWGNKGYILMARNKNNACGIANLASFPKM
Method: In Vitro Assay Procedure for Cathepsin K
To a 170 μl of enzyme-buffer mixture (enzyme: r cathepsin K, diluted to give approximate 30 F units/min, buffer: 100 mM sodium acetate, 5 mM EDTA, 20 mM L-cysteine, 0.01% Brij, pH 5.5) a 10 μL of inhibitor (dissolved in DMSO) was added. After 10 min of incubation at room temperature, a 20 μl of 2.7 mM substrate (N-CBZ-Phe-Arg-AMC, dissolved in DMSO) was added to initiate reaction. Reading is followed up for 10 min at the fluoroscan II plate reader (excitation at 380 nm emission at 460 nm).
as §1

[4] = target: rat cathepsin B (Rattus norvegicus, UniProt P00787); assay: In vitro assay for inhibition of cathepsin B; type: biochemical; details: r rat cathepsin B, substrate N-CBZ-Phe-Arg-AMC, pH 5.1, 10 min incubation at room temperature
Sequence of rat cathepsin B (P00787 80-333): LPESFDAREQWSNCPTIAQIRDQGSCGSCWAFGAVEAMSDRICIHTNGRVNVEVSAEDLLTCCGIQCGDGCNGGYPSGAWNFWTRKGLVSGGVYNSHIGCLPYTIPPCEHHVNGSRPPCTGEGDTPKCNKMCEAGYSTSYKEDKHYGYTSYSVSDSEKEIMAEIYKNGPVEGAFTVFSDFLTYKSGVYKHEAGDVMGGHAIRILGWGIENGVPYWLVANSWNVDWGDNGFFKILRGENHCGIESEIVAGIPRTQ
Method: In Vitro Assay Procedure for Cathepsin B
The compounds of formula I were tested for inhibition of cathepsin B using the known method (A. J. Barret et al., Biochem. J. 1982, 201, 189-198). To a 170 μl of enzyme-buffer mixture (enzyme: r rat cathepsin B, diluted to give approximate 10 F units/min, buffer: 56 mM sodium acetate, 1.124 mM EDTA, 10 mM DTT, pH 5.1) a 10 μL of inhibitor (dissolved in DMSO) was added. After 10 min of incubation at room temperature, a 20 μl of 5 mM substrate (N-CBZ-Phe-Arg-AMC, dissolved in DMSO) was added to initiate reaction. Reading is followed up for 10 min at the fluoroscan reader (excitation at 380 nm emission at 460 nm).
as §1

Sequence of rat cathepsin L (P07154 114-334): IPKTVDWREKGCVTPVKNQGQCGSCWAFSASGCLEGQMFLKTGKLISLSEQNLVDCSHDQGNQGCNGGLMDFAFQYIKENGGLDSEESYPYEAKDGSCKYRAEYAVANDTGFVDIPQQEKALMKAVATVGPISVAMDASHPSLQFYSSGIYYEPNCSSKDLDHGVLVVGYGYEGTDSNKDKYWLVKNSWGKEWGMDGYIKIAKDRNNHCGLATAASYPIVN

NC=C(NC(=O)[C@H](Cc1ccccc1)NC(=O)OCc1ccccc1)C(N)=O [Example 3, 2-(2S-2-Benzyloxycarbonylamino-2-benzyl-acetamido)-3-amino-acrylamide]
IC50 [1]: 0.0055 µM
IC50 [2]: 0.26 µM
IC50 [3]: 0.23 µM
melting point: 127 to 135 °C
IC50 [4]: 1.42 µM

CC(=O)N/C=C(\NC(=O)[C@H](CC(C)C)NC(=O)OCc1ccccc1)C(N)=O [Example 10b, (2Z)-(2S-2-Benzyloxycarbonylamino-2-isopropylmethyl-acetamido)-3-acetamido-acrylamide]
IC50 [1]: > 64 µM
IC50 [2]: > 3.2 µM
IC50 [3]: 10.7 µM
IC50 [4]: 50.5 µM

CC(C)C[C@H](NC(=O)OCc1ccccc1)C(=O)NC(=CNCc1ccccc1)C(=O)NCc1ccccc1 [Example 16, 2-(2S-2-Benzyloxycarbonylamino-2-isopropylmethyl-acetamido)-3-benzylamino-N-benzyl-acrylamide]
IC50 [1]: 0.015 µM
IC50 [2]: 0.026 µM
IC50 [3]: 0.01 µM
IC50 [4]: 0.15 µM

CC(=O)N/C=C(/NC(=O)[C@H](CC(C)C)NC(=O)OCc1ccccc1)C(N)=O [Example 10a, (2E)-(2S-2-Benzyloxycarbonylamino-2-isopropylmethyl-acetamido)-3-acetamido-acrylamide]
IC50 [1]: 8.62 µM
IC50 [2]: 0.013 µM
IC50 [3]: 1.42 µM
melting point: 73 to 76 °C
IC50 [4]: 45.2 µM

COC(=O)CN/C=C(\NC(=O)[C@H](Cc1ccccc1)NC(=O)OCc1ccccc1)C(N)=O [Example 31b, (2Z)-(2S-2-Benzyloxycarbonylamino-2-phenylmethyl-acetamido)-3-(1-carbomethoxy-methylamino)-acrylamide]
IC50 [1]: 0.017 µM
IC50 [2]: 0.43 µM
IC50 [3]: 0.09 µM
IC50 [4]: 0.43 µM

COC(=O)[C@H](Cc1ccccc1)N/C=C(/NC(=O)[C@H](Cc1ccccc1)NC(=O)OCc1ccccc1)C(N)=O [Example 30a, (2E)-(2S-2-Benzyloxycarbonylamino-2-phenylmethyl-acetamido)-3-(1-carbomethoxy-2-phenethylamino)-acrylamide]
IC50 [1]: 0.048 µM
IC50 [2]: 0.57 µM
IC50 [3]: 0.28 µM
IC50 [4]: 1.83 µM

CCOC(=O)/C(=C\N1CCN(C)CC1)NC(=O)[C@H](CC(C)C)NC(=O)OCc1ccccc1 [Example 21, Ethyl-2-[2S-(benzyloxycarbonylamino)-2-isopropylmethyl-acetamido]-2-(4-methylpiperazino-1-methylenyl)-acetate]
IC50 [1]: 0.21 µM
IC50 [2]: 0.3 µM
IC50 [3]: 0.087 µM
IC50 [4]: 8.21 µM

CCOC(=O)/C(=C\N1CCOCC1)NC(=O)[C@H](Cc1ccccc1)NC(=O)OCc1ccccc1 [Example 22, Ethyl-2-[2S-(benzyloxycarbonylamino)-2-phenylmethyl-acetamido]-2-(morpholino-1-methylenyl)-acetate]
IC50 [1]: 0.04 µM
IC50 [2]: 0.42 µM
IC50 [3]: 0.04 µM
IC50 [4]: 0.08 µM

COc1ccc(C(=O)/C(=C\N2CCOCC2)NC(=O)[C@H](CC(C)C)NC(=O)OCc2ccccc2)cc1 [Example 28, 2-[2S-(Benzyloxycarbonylamino)-2-isopropylmethyl-acetamido]-2-(morpholino-1-methylenyl)-4′-methoxyacetophenone]
IC50 [1]: 0.27 µM
IC50 [2]: 1.3 µM
IC50 [3]: 0.016 µM
IC50 [4]: 1.96 µM

COC(=O)[C@H](Cc1ccccc1)N/C=C(\NC(=O)[C@H](Cc1ccccc1)NC(=O)OCc1ccccc1)C(N)=O [Example 30b, (2Z)-(2S-2-Benzyloxycarbonylamino-2-phenylmethyl-acetamido)-3-(1-carbomethoxy-2-phenethylamino)-acrylamide]
IC50 [1]: 0.035 µM
IC50 [2]: 1.21 µM
IC50 [3]: 0.28 µM
IC50 [4]: 1.83 µM

CCOC(=O)/C(=C\N1CCOCC1)NC(=O)[C@H](CC(C)C)NC(=O)OCc1ccccc1 [Example 23, Ethyl-2-[2S-(benzyloxycarbonylamino)-2-isopropylmethyl-acetamido]-2-(morpholino-1-methylenyl)-acetate]
IC50 [1]: 0.089 µM
IC50 [2]: 0.038 µM
IC50 [3]: 0.011 µM
IC50 [4]: 0.45 µM

CCOC(=O)/C(=C\N1CCOCC1)NC(=O)[C@H](CC1CCCCC1)NC(=O)OCc1ccccc1 [Example 24, Ethyl-2-[2S-(benzyloxycarbonylamino)-2-cyclohexylmethyl-acetamido]-2-(morpholino-1-methylenyl)-acetate]
IC50 [1]: 0.082 µM
IC50 [2]: 0.0033 µM
IC50 [3]: 0.37 µM
IC50 [4]: 0.082 µM

CC(=O)N/C=C(\NC(=O)[C@H](CC1CCCCC1)NC(=O)OCc1ccccc1)C(N)=O [Example 19b, (2Z)-(2S-2-Benzyloxycarbonylamino-2-cyclohexylmethyl-acetamido)-3-acetamido-acrylamide]
IC50 [1]: ≥ 58 µM
IC50 [2]: 5.23 µM
IC50 [3]: > 58 µM
IC50 [4]: > 58 µM

CC(C)C[C@H](NC(=O)OCc1ccccc1)C(=O)N/C(=C/N1CCOCC1)C(=O)c1ccc(F)cc1 [Example 29, 2-[2S-(Benzyloxycarbonylamino)-2-isopropylmethyl-acetamido]-2-(morpholino-1-methylenyl)-4′-fluoroacetophenone]
IC50 [1]: 2.01 µM
IC50 [2]: 50.3 µM
IC50 [3]: 0.34 µM
IC50 [4]: 50.3 µM

CC(C)C[C@H](NC(=O)OCc1ccccc1)C(=O)N/C(=C/N1CCOCC1)C(=O)OC(C)(C)C [Example 20, tert-Butyl-2-[2S-(benzyloxycarbonylamino)-2-isopropylmethyl-acetamido]-2-(morpholino-1-methylenyl)-acetate]
IC50 [1]: 0.08 µM
IC50 [2]: 0.38 µM
IC50 [3]: 0.004 µM
IC50 [4]: 0.42 µM

CC(C)C[C@H](NC(=O)OCc1ccccc1)C(=O)N/C(=C/N1CCOCC1)C(=O)c1ccccc1 [Example 27, 2-[2S-(Benzyloxycarbonylamino)-2-isopropylmethyl-acetamido]-2-(morpholino-1-methylenyl)-acetophenone]
IC50 [1]: 4.24 µM
IC50 [2]: 52.2 µM
IC50 [3]: 0.14 µM
IC50 [4]: 32.3 µM

O=C(CCc1ccccc1)N[C@@H](Cc1ccccc1)C(=O)N/C(=C/N1CCOCC1)C(=O)OC(c1ccccc1)c1ccccc1 [Example 25, Diphenylmethyl-2-[2S-(3-phenylpropionylamino)-2-phenylmethyl-acetamido]-2-(morpholino-1-methylenyl)-acetate]
IC50 [1]: 0.18 µM
IC50 [2]: 0.18 µM
IC50 [3]: 0.065 µM
IC50 [4]: 0.06 µM

COC(=O)CN/C=C(/NC(=O)[C@H](Cc1ccccc1)NC(=O)OCc1ccccc1)C(N)=O [Example 31a, (2E)-(2S-2-Benzyloxycarbonylamino-2-phenylmethyl-acetamido)-3-(1-carbomethoxy-methylamino)-acrylamide]
IC50 [1]: 0.017 µM
IC50 [2]: 0.7 µM
IC50 [3]: 0.13 µM
IC50 [4]: 0.66 µM

COc1ccc(C(=O)/C(=C\N2CCOCC2)NC(=O)[C@H](CC(C)C)NC(=O)c2cc3ccccc3s2)cc1 [Example 26, 2-[2S-(Benzothiophen-2-carbonylamino)-2-isopropylmethyl-acetamido]-2-(morpholino-1-methylenyl)-4′-methoxyacetophenone]
IC50 [1]: 0.075 µM
IC50 [2]: 0.99 µM
IC50 [3]: 0.015 µM
IC50 [4]: 1.47 µM

NC(=O)C(NC(=O)[C@H](Cc1ccccc1)NC(=O)OCc1ccccc1)C(O)O (stereo partly drawn) [Example 13, 2-(2S-2-Benzyloxycarbonylamino-2-benzyl-acetamido)-3,3-dihydroxy-propionamide]
IC50 [1]: 0.004 µM
IC50 [2]: 0.004 µM
IC50 [3]: 0.4 µM
IC50 [4]: 1.4 µM
